Results from patent publication US20130303500A1, “COMPOUNDS AND METHODS FOR TREATING NEOPLASIA” (Medexis S.A., priority 2010, published 2013).

Legend:
[1] = system: membrane androgen receptor; assay: Membrane androgen receptor competition assay with testosterone-HSA-FITC in DU145 cells; type: binding; set-up: membrane fluorescence (binding of TAC-FITC to the membrane androgen receptor): dose or concentration left out as unconfirmed
Experimental: The detection of membrane androgen receptors using fluorescent testosterone-serum albumin conjugates was performed as described by Kampa, M et al., 2002, Faseb J 16:1429-1431, with minor modifications. The assay was used to measure the ability of a given compound to preclude binding of a fluorescent mAR ligand (testosterone-HSA-FITC conjugates) to its receptor in DU145 cells; this compound-induced effect is indicative of direct mAR binding (see Kampa et al and PCT/US2007/007913). […] Coverslips were mounted on slides by using the Slow Fade/Antifade Reagent (Molecular Probes) and studied under a LEICA DMLB microscope, equipped with the appropriate fluorescence filters and a Leica DC 300F camera. Specimens were analyzed using the Leica FW4000 computer program.
Membrane androgen receptor competition assays were performed to determine the capacity of a given compound to preclude binding of fluorescent testosterone-HSA conjugates (TAC) to the membrane androgen receptor. […] Specimens were prepared and analyzed as described above. Compounds binding to the membrane androgen receptor preclude binding of fluorescent testosterone-HSA conjugates to their target and abolish membrane-specific fluorescence.

HCT116 (Colon) cells = assay: Sulforhodamine B (SRB) assay, HCT116; type: cell-based, human
Experimental: (§1) Sulforhodamine B (SRB) assays were performed according to standard National Cancer Institute Guidelines. Briefly, human tumor cells from different cancer panels were seeded into 96 well plates in […] (plating densities ranging from 5-40,000 cells/well depending on the doubling time of individual cell lines) in serum-containing media for twenty-four hours prior to the addition of the compounds to be assayed. After 24 hours, one plate of each cell line was fixed in situ with trichloroacetic acid (TCA). The fixed slides were used to determine the cell population for each cell line at the time of drug addition (Tz). Each compound to be tested was solubilized in dimethyl sulfoxide (DMSO) and the desired concentration was then added to the medium and diluted serially 1:10 to provide a total of five or ten drug concentrations plus control (in a final volume of 200 μL). The starting dose before any dilution was 100 uM for all compounds.
(§2) Following drug addition, each culture was incubated for forty-eight hours. The assay was terminated with the addition of cold TCA. The supernatant was discarded, and the plates were washed with tap water and air dried. SRB solution was then added to each well. After staining, the bound stain was solubilized and the absorbance was read on an automated plate reader at a wavelength of 515 nm.
(§3) Using the absorbance measurements [time zero, (Tz), control growth, (C), and test growth in the presence of drug at the ten concentration levels (Ti)], the percentage growth was calculated at each of the drug concentrations levels. Percentage growth inhibition was calculated as:
(§4) [(Ti−Tz)/(C−Tz)]×100 for concentrations for which Ti>/=Tz
(§5) [(Ti−Tz)/Tz]×100 for concentrations for which Ti<Tz.
(§6) Three dose response parameters were calculated for each experimental agent. Growth inhibition of 50% (GI50) was calculated from [(Ti−Tz)/(C−Tz)]×100=50, which was the drug concentration resulting in a 50% reduction in the net protein increase (as measured by SRB staining) in control cells during the drug. The drug concentration resulting in total growth inhibition (TGI) was calculated from Ti=Tz. The LC50 (concentration of drug resulting in a 50% reduction in the measured protein at the end of the drug treatment as compared to that at the beginning) indicating a net loss of cells following treatment was calculated from [(Ti−Tz)/Tz]×100=−50.
(§7) Values were calculated for each of these three parameters when the level of activity was reached; however, if the effect was not reached or was exceeded, the value for that parameter was expressed as greater or less than the maximum or minimum concentration tested.

PC3 (Prostate) cells = assay: Sulforhodamine B (SRB) assay, PC3; type: cell-based; settings: Homo sapiens, Prostate cell, 48 h
Experimental: as §1, §2, §3, §4, §5, §6, §7

[2] = system: NCI-ADR-RES (Ovarian) cells; assay: Sulforhodamine B (SRB) assay, NCI-ADR-RES (multidrug resistant); type: cell-based, human; settings: 48 h
Experimental: as §1, §2, §3, §4, §5, §6, §7

Question: `C[C@]12CCC(=NOC3CCNC3)CC1CCC1C2CC[C@]2(C)C(=O)C(F)CC12` (stereo partly drawn) [Compound 2, (5S,10S,13S,16R)-16a-fluoro-10,13-dimethyl-3-((S)-pyrrolidin-3-yloxyimino)-tetradecahydro-2H-cyclopenta[a]phenanthren-17(14H)-one] was tested. Which “binding to the membrane androgen receptor (conclusion)” value ([1]; DU145 cells) did it give?
Answer: capable of binding to the membrane androgen receptor

Question: And the “membrane fluorescence (binding of TAC-FITC to the membrane androgen receptor)” value ([1]; DU145 cells pre-treated with compound for 30 minutes, then testosterone-HSA-FITC)?
Answer: largely reduced

Question: What about the TGI (HCT116 (Colon) cells; HCT116 Colon, SRB, 48 h) of the same molecule?
Answer: 156 nM

Question: What about the CC50 (HCT116 (Colon) cells; Homo sapiens, HCT-116, 48 h, read-out: LC50) of the same molecule?
Answer: 998 nM

Question: What about the GI50 (HCT116 (Colon) cells; Homo sapiens, HCT-116, HCT116 Colon, SRB, 48 h) of the same molecule?
Answer: 8 nM

Question: And the CC50 (PC3 (Prostate) cells; read-out: LC50)?
Answer: 962 nM

Question: What about the GI50 (PC3 (Prostate) cells; PC3 Prostate, SRB) of the same molecule?
Answer: 46 nM

Question: And the IC (TGI) (PC3 (Prostate) cells; PC3 Prostate, SRB)?
Answer: 414 nM

Question: And the CC50 ([2]; Homo sapiens, NCI/ADR-RES, read-out: LC50)?
Answer: 598 nM

Question: What about the GI50 ([2]; Homo sapiens, NCI-ADR-RES Ovarian, SRB) of the same molecule?
Answer: 29 nM

Question: What about the TGI ([2]; NCI-ADR-RES Ovarian, SRB) of the same molecule?
Answer: 94 nM
